Data set [1] deals with EGFR (d746-750/T790M/C797S) (Homo sapiens (Human), UniProt P00533, C797S/DEL746-750/T790M). Briefly: Inhibitory activity for EGFR (d746-750/T790M/C797S) kinase. It counts as biochemical. The following applies: ATP 5 μM; read-out: EGFR(d19/T790M/C797S) (IC50). Here is the method:
1.5 Screening for Inhibitory Activity for EGFR (d746-750/T790M/C797S) Kinase
(§1) A 50 ng/μL EGFR (d746-750/T790M/C797S, BPS) stock solution was diluted with a kinase buffer (50 mM HEPES, 10 mM MgCl2, 2 mM DTT, 1 mM EGTA, 0.01% Tween 20), and 6 μL of 1.67× working solution at 0.05 ng/μL (final concentration: 0.03 ng/μL) was added to each well. Different compounds dissolved in DMSO were added to the wells using a nanoliter pipettor, resulting in the final concentrations of the compounds of 10 nM to 0.0024 nM (4-fold gradient for 7 concentrations in total), and blank control wells (without enzyme) and negative control wells (with enzyme, plus vehicle DMSO) were set, 2 replicate wells for each concentration. After enzyme was reacted with the compound or vehicle for 30 min, 5×ATP at 25 μM (final concentration: 5 μM, Sigma) prepared with a kinase buffer was mixed with 5× substrate at 0.5 μM (final concentration: 0.1 μM, ULight-poly GT, PerkinElmer) at a ratio of 1:1 (v:v), and the mixture was added to each well at 4 μL/well. After being sealed with a film, the plate was incubated at room temperature for 2 h, and then 5 μL of 4×EDTA at 40 mM (final concentration: 10 mM) was added to each well. After the plate was incubated for 5 min at room temperature, 5 μL of 4× detection reagent at 8 nM (final concentration: 2 nM, Eu-anti-phospho-tyrosine antibody, PerkinElmer) was added to each well. After being incubated at room temperature for 1 h, the plate was read using a PerkinElmer Envision multi-mode microplate reader (excitation: 320 nm, emission: 665 nm), and IC50 was calculated by four-parameter fitting.

Data set [2] has as its system BAF3-EGFR (L858R/T790M/C797S) cells. Kind of data set: Inhibition of proliferation of BAF3-EGFR (L858R/T790M/C797S) cells, CCK-8. To be noted: Ba/F3 EGFR, 72 h, read-out: BAF3(EGFR T790M L858R C797S) cell inhibitory activity IC50. It counts as cell-based. Here is the method: A flask of EGFR (L858R/T790M/C797S) cells in the logarithmic growth phase and good conditions was taken, and the cells were collected and added to a centrifuge tube. 20 μL of cells were taken and counted, and the required number of cells (mL) was pipetted and centrifuged at 1200 rpm for 3 min. The supernatant was discarded, and an appropriate amount of plating medium (RPMI medium+10% FBS) was added to adjust the cell density to 1.5×10^5 cells/mL. The cells were seeded on a 96-well plate at 100 μL/well using a multi-channel pipette and cultured in a cell incubator at 37° C., 5% CO2 with saturated humidity. After overnight incubation, compounds were loaded using a nanoliter pipettor, 2 duplicate wells were set for each concentration, and cells without compound added were used as negative controls.
(§2) Inhibition rate (%)=(mean value of negative control group-mean value of experimental group)/(mean value of negative control group−mean value of blank group)×100%.
(§3) A dose-response curve was fitted by four-parameter analysis, with the logarithm of compound concentration serving as abscissa and inhibition rate serving as ordinate, such that IC50 was calculated.

In data set [3] the target is EGFR (d746-750 (d19)/T790M) (Homo sapiens (Human), UniProt P00533, DEL746-750/T790M). Briefly: Inhibitory activity for EGFR (d746-750 (d19)/T790M) kinase. It counts as biochemical. To be noted: ATP 5 μM. The protocol:
1.3 Screening for Inhibitory Activity for EGFR (d746-750 (d19)/T790M) Kinase
as §1, with “(d746-750/T790M, Carna)” for “(d746-750/T790M/C797S, BPS)”, “0.005” for “0.05”, “0.003” for “0.03”

Data set [4] relates to PC-9 EGFR-Del19-T790M-C797S cells. Kind of data set: Inhibition of proliferation of PC-9-EGFR (Del19 T790M C797S) cells, CCK-8. It counts as cell-based. To be noted: 72 h, read-out: PC-9-EGFR (Del19 T790M C797S) cell inhibitory activity IC50. Here is the method: PC-9 EGFR-Del19-T790M-C797S cells in the logarithmic growth phase and good conditions were taken, washed with PBS, digested with pancreatin, terminated with a complete medium, collected and added to a centrifuge tube, adjusted to a cell density of 2×10^4 cells/mL, and seeded in a 96-well plate (100 μL/well). Meanwhile, compounds were loaded using a nanoliter pipettor resulting in the final concentrations of the compounds of 1000 nM-0.06 nM, and a control was set, replicate wells for each concentration. After 72 h of incubation in the cell incubator, the assay reagent CCK-8 (manufacturer: Dojindo Laboratories, Beijing; 10 μL/well) was added. After 2 h of incubation in the cell incubator, absorbance was measured at 450 nm on a PerkinElmer Envision microplate reader, and the inhibition rate was calculated.
as §2, §3

Data set [5] in a line: In vivo pharmacokinetics in ICR mice. To be noted: for AUC(0-inf) / AUC(0-t) / MRT last / half-life / bioavailability / Cmax / Tmax: mouse, plasma; for AUC(0-t): read-out: AUC(0-t); for MRT last: read-out: MRT(0-t); for half-life: read-out: T½ (converted); for bioavailability: 10 mg/kg, PO vs IV; for Cmax: read-out: Cmax; for Tmax: read-out: Tmax. Here is the method: The animals to be tested (ICR mice) were fasted for 12 h before administration and food was provided 4 h after administration, and water was freely drunk before and after the experiment and during the experiment.
After intragastric administration, about 0.1 mL of blood was collected from the orbit at 0 min, 15 min, 30 min, 1 h, 2 h, 4 h, 6 h, 8 h, 10 h, and 24 h. After anticoagulation with EDTA-K2, blood samples were transferred to a centrifuge within 30 min, and centrifuged at 4000 rpm for 10 min at 4° C. to separate the plasma. All the plasma samples were collected and immediately stored at −20° C. for testing.
300 μL of acetonitrile solution containing an internal standard ([…] diazepam) was added to 20 μL of the plasma sample to be tested and a standard curve sample. The mixture was shaken and homogeneously mixed for 5 min, and centrifuged at 12,000 rpm for 10 min. 70 μL of supernatant was taken and diluted with 70 μL of ultrapure water. After being mixed well, 2 μL of the resulting sample was subjected to LC/MS/MS, and a chromatogram was recorded.

Read-outs that look alike come from different tables or passages of the source.

Sequence of EGFR (d746-750/T790M/C797S) (P00533 other isoform, or with tags, fused parts or gaps T790M/C797S/del 1-694/del 746-750 limits assumed): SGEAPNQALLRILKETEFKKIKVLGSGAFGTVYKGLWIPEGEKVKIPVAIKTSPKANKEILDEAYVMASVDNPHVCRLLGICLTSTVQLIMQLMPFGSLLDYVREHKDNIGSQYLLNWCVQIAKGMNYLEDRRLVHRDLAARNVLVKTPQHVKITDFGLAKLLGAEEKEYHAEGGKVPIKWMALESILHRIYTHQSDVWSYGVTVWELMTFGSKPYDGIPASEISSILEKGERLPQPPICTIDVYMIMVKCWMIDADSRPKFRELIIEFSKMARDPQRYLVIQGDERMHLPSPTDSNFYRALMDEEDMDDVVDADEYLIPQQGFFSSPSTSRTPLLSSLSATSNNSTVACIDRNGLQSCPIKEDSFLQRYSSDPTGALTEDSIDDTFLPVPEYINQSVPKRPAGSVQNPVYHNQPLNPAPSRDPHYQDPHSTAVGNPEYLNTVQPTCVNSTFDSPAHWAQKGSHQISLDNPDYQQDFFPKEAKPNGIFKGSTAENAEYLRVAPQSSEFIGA
Sequence of EGFR (d746-750 (d19)/T790M) (P00533 other isoform, or with tags, fused parts or gaps T790M/del 1-668/del 746-750 limits assumed): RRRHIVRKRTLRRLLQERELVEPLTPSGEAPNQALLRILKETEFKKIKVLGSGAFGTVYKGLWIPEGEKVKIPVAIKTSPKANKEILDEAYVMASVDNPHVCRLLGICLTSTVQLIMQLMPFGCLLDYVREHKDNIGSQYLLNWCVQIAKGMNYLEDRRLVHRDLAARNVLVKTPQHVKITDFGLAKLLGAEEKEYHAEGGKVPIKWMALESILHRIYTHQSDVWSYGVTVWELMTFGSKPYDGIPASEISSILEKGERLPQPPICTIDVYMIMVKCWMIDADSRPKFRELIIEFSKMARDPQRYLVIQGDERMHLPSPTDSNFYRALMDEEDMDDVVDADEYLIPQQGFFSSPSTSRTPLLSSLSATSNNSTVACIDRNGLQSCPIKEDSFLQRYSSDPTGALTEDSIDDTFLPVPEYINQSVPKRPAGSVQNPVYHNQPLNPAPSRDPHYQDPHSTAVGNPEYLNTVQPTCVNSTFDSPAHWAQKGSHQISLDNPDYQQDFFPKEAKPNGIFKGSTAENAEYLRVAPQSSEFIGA

For the molecule `CNCCCCNc1ccc2c(c1)N/C1=N\C(=O)c3cc(C)nc(c3)-c3cnn(C)c3OCCC[C@@H](C3CC3)CN12` [Example 52], the IC50 in data set [1] was 0.028 nM; in data set [2] it was less than 5 nM; in data set [3] it was 0.021 nM.

As to `Cc1cc2cc(n1)-c1cnn(C)c1OCCC[C@@H](C1CC1)CN1/C(=N/C2=O)Nc2cc(NCCCCN)ccc21` [Example 53], the IC50 in data set [1] was 0.013 nM; in data set [2] it was less than 5 nM; in data set [3], 0.0098 nM.

As for `Cc1cc2cc(n1)-c1cnn(C)c1OCCC[C@@H](C1CC1)CN1/C(=N/C2=O)Nc2ccc(N(C)[C@@H](C)CN(C)C)cc21` [Example 85], in data set [4], the IC50 was less than 50 nM.

Regarding `Cc1cc2cc(n1)-c1cnn(C)c1OCCC[C@@H](C1CC1)CN1/C(=N/C2=O)Nc2ccc(NC3CC(N(C)C)C3)cc21` (some centres unmarked) [Example 98], the IC50 in data set [4] is less than 50 nM; in data set [2], less than 5 nM; in data set [3], 0.087 nM.

As for `[2H]C([2H])([2H])N(CCN(C)C)c1ccc2c(c1)N1C[C@H](C3CC3)CCCOc3c(cnn3C)-c3cc(cc(C)n3)C(=O)/N=C/1N2` [Example 116], the IC50 in data set [4] is less than 50 nM.

In general, AUC(0-inf) refers to total exposure, with the tail of the curve extrapolated. A higher AUC(0-inf) goes with high exposure. The term AUC(0-t) denotes exposure summed from dosing to a finite time, without extrapolation to infinity. By bioavailability is commonly meant dose-corrected exposure relative to a reference, in per cent. Read a high bioavailability as much systemic uptake. By Cmax is commonly meant the highest concentration seen after dosing. For orientation: Tmax means the time from dosing to the highest level. Consider `Cc1cc2cc(n1)-c1cnn(C)c1OCCC[C@@H](C1CC1)CN1/C(=N/C2=O)Nc2ccc(N(C)C3CCN(C)CC3)cc21` [Example 117], for which, in data set [4], the IC50 is less than 50 nM. The molecule further registered an IC50 in data set [3] of 0.12 nM. In data set [5] (IV), this molecule showed a CLz of 58.2 mL/min/kg. In addition, in data set [5] (1 mg/kg, IV), the AUC(0-inf) turned out to be 286 ng·h/mL, the AUC(0-t) came to 284 ng·h/mL, the MRT last came to 3.3 h and the half-life is 2.18 h. Also, the bioavailability in data set [5] was found to be 29.1%. Besides, in data set [5] (PO, 10 mg/kg intragastric), the AUC(0-inf) stood at 848 ng·h/mL, the AUC(0-t) was 826 ng·h/mL, the Cmax is 77.1 ng/mL and the MRT last was 6.79 h. Also, in data set [5] (PO, 10 mg/kg intragastric), the time of peak concentration (Tmax) worked out at 6 h and the half-life is 4.17 h.

As to `[2H]C([2H])([2H])N(C[C@H](C)Nc1ccc2c(c1)N1C[C@H](C3CC3)CCCOc3c(cnn3C)-c3cc(cc(C)n3)C(=O)/N=C/1N2)C([2H])([2H])[2H]` [Example 123], the figures for the IC50 in data set [4], in data set [1] and in data set [2] were less than 50 nM, 0.1 nM and less than 5 nM, respectively.

As for `Cc1cc2cc(n1)-c1cnn(C)c1OCCC[C@@H](C1CC1)CN1/C(=N/C2=O)Nc2ccc(N[C@H]3C[C@H](N(C)C)C3)cc21` [Example 128], in data set [4], the IC50 is less than 50 nM. Besides, in data set [3], the IC50 came out at 0.13 nM. This molecule returned a CLz in data set [5] (IV) of 75.3 mL/min/kg. Also, in data set [5] (1 mg/kg, IV), the total exposure AUC(0-inf) was 221 ng·h/mL, the AUC(0-t) is 214 ng·h/mL, the MRT last turned out to be 1.65 h and the half-life was 2.17 h. Moreover, the bioavailability in data set [5] turned out to be 30.5%. Also, in data set [5] (PO, 10 mg/kg intragastric), the AUC(0-inf) stood at 662 ng·h/mL, the area under the curve AUC(0-t) amounted to 654 ng·h/mL, the Cmax amounted to 57.8 ng/mL and the MRT last is 6.81 h. In data set [5] (PO, 10 mg/kg intragastric), the Tmax amounted to 6 h and the half-life is 3.46 h.

For `Cc1cc2cc(n1)-c1cnn(C)c1OCCC[C@@H](C1CC1)CN1/C(=N/C2=O)Nc2ccc(N[C@H]3CC[C@H](N(C)C)C3)cc21` [Example 136], the IC50 was less than 50 nM in data set [4] and 0.15 nM in data set [3].

As to `Cc1cc2cc(n1)-c1cnn(C)c1OCCC[C@@H](C1CC1)CN1/C(=N/C2=O)Nc2cc(N[C@H](C)CCN3CCCCC3)ccc21` [Example 139], the IC50 in data set [4] was less than 50 nM; in data set [1], 0.076 nM; in data set [2], less than 5 nM.

Take `Cc1cc2cc(n1)-c1cnn(C)c1OCCC[C@@H](C1CC1)CN1/C(=N/C2=O)Nc2ccc(N[C@H](C)CN3CCCCC3)cc21` [Example 141]: the figures for the IC50 in data set [4], in data set [1] and in data set [2] were less than 50 nM, 0.072 nM and less than 5 nM, respectively.

Take `Cc1cc2cc(n1)-c1cnn(C)c1OCCC[C@@H](C1CC1)CN1/C(=N/C2=O)Nc2ccc(N[C@H](C)CCN3CCCCC3)cc21` [Example 143]: the IC50 in data set [4] was less than 50 nM; in data set [1], 0.079 nM; in data set [2], less than 5 nM.

Turning to `Cc1cc2cc(n1)-c1cnn(C)c1OCCC[C@@H](C1CC1)CN1/C(=N/C2=O)Nc2ccc(N[C@@H](C)CCN3CCCCC3)cc21` [Example 144], the IC50 in data set [4] is less than 50 nM; in data set [1], 0.068 nM; in data set [2], less than 5 nM.

Regarding `[2H]C([2H])([2H])N(C[C@@H](C)Nc1ccc2c(c1)N/C1=N\C(=O)c3cc(C)nc(c3)-c3cnn(C)c3OCCC[C@@H](C3CC3)CN12)C([2H])([2H])[2H]` [Example 146], the IC50 in data set [4] is less than 50 nM; in data set [1], 0.074 nM; in data set [2], less than 5 nM.

Take `Cc1cc2cc(n1)-c1cnn(C)c1OCCC[C@@H](C1CC1)CN1/C(=N/C2=O)Nc2cc(N[C@H]3CC[C@H](O)CC3)ccc21` [Example 151]: the IC50 was less than 50 nM in data set [4], 0.12 nM in data set [1] and less than 5 nM in data set [2].
